The first assay deals with Human plasma kallikrein (Homo sapiens (Human), UniProt P03952). As to the kind of experiment: In vitro plasma kallikrein inhibition assay (chromogenic substrate D-Pro-Phe-Arg-pNa, absorbance at 405 nm, IC50 determination). Format: biochemical.
Sequence of Human plasma kallikrein (P03952 391-638): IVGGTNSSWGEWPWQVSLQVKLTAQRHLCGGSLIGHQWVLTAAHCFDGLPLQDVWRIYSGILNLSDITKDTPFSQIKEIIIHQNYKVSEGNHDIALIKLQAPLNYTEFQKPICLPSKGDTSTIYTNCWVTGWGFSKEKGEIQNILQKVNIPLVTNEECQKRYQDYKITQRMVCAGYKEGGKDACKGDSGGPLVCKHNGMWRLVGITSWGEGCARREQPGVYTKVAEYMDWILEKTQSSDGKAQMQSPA
Sequence of Human plasma kallikrein (P03952 20-390 partner): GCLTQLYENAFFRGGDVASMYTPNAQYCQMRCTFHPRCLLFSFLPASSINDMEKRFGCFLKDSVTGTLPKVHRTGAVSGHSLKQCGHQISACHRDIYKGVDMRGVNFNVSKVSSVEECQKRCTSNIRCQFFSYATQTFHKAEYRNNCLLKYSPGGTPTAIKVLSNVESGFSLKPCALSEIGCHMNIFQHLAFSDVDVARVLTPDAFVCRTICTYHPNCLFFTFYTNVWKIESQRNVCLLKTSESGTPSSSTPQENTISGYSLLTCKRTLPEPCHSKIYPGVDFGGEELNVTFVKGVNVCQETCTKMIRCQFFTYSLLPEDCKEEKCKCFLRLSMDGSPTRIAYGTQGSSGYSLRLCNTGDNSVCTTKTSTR
Conditions: not given
With `Cc1cc(N)nc(C)c1CNC(=O)c1ccc2c(c1)C1OC2c2c(C)cc(-c3ccc(F)cc3)cc21` (racemic) [Example 340, (±)-N-[(6-amino-2,4-dimethyl-pyridin-3-yl)methyl]-12-(4-fluorophenyl)-10-methyl-15-oxatetracyclo[6.6.1.0^2,^7.0^9,1^4] pentadeca-2,4,6,9(14),10,12-hexaene-4-carboxamide and (±)-N-[(6-amino-2,4-dimethylpyridin-3-yl)methyl]-11-(4-fluorophenyl)-13-methyl-15-oxatetracyclo [6.6.1.0^2,^7.0^9,1^4]pentadeca-2,4,6,9(14),10,12-hexaene-4-carboxamide], the “KLKB1 pIC50” value was 6.64.

The assay is the same for the next values; noted with them: read-out: KLKB1 pIC50 (converted).
Take `COc1cc2c(cc1OC)C1OC2c2ccc(C(=O)NCc3c(C)cc(N)nc3C)cc21` (racemic) [Example 335, (±)-N-[(6-amino-2,4-dimethylpyridin-3-yl)methyl]-11,12-dimethoxy-15-oxatetracyclo[6.6.1.0^2,^7.0^9,1^4] pentadeca-2,4,6,9(14),10,12-hexaene-4-carboxamide]: the IC50 was 1620 nM.

As to `Cc1cc(N)nc(C)c1CNC(=O)c1ccc2c(c1)C1OC2c2cc3c(cc21)OCCO3` (racemic) [Example 342, (±)-N-[(6-amino-2,4-dimethylpyridin-3-yl)methyl]-5,8,19-trioxapentacyclo-[10.6.1.0^2,11.0^4,^9.0^13,1^8]nonadeca-2,4(9),10,13,15,17-hexaene-15-carboxamide], the IC50 is 550 nM.

As for `CC12OC(C)(c3cc(C(=O)NCc4ccc(C(=N)N)cc4)ccc31)c1cc(-c3ccc(F)cc3)ccc12` (racemic) [Example 344, N-[(4-carbamimidoylphenyl)methyl]-12-(4-fluorophenyl)-1,8-dimethyl-15-oxatetracyclo [6.6.1.0^2,^7.0^9,1^4]pentadeca-2,4,6,9,11,13-hexaene-4-carboxamide], the IC50 was 427 nM.

Consider `Cc1cc(-c2ccc(F)cc2)cc2c1C1OC2c2cc(C(=O)NCc3ccc(C(=N)N)cc3)cc(F)c21` (racemic) [Example 396, (±)-N-[(4-carbamimidoylphenyl)methyl]-6-fluoro-12-(4-fluorophenyl)-10-methyl-15-oxatetracyclo[6.6.1.0^2,^7.0^9,1^4] pentadeca-2(7),3,5,9(14),10,12-hexaene-4-carboxamide], for which the IC50 is 5.01 nM.

On to `Cc1cc(N)nc(C)c1CNC(=O)c1cc(F)c2c(c1)C1OC2c2c(C)cc(-c3ccc(F)cc3)cc21` (racemic) [Example 397, (±)-N-(6-amino-2,4-dimethylpyridin-3-yl) methyl]-6-fluoro-12-(4-fluorophenyl)-10-methyl-15-oxatetracyclo[6.6.1.0^2,^7.0^9,1^4] pentadeca-2(7),3,5,9(14),10,12-hexaene-4-carboxamide], for which the IC50 was 20 nM.

With `Cc1cc(N)nc(C)c1CNC(=O)c1cc(F)c2c(c1)C1OC2c2cc(-c3ccc(F)cc3)cc(C)c21` (racemic) [Example 398, N-[(6-amino-2,4-dimethyl-pyridin-3-yl)methyl]-6-fluoro-11-(4-fluorophenyl)-13-methyl-15-oxatetracyclo[6.6.1.0^2,^7.0^9,1^4] pentadeca-2,4,6,9(14),10,12-hexaene-4-carboxamide], the IC50 was 398 nM.

As to `Cc1cc(N)nc(C)c1CNC(=O)c1ccc2c(c1)[C@@H]1O[C@H]2c2cc(-c3ccccc3F)ccc21` (single isomer, unassigned) [Example 130], the IC50 is 195 nM.

On to `Cc1cc(N)nc(C)c1CNC(=O)c1ccc2c(c1)[C@@H]1O[C@H]2c2ccc(-c3ccc(F)c(F)c3F)cc21` (single isomer, unassigned) [Example 138], for which the IC50 is 24 nM.

In the case of `Cc1cc(N)nc(C)c1CNC(=O)c1ccc2c(c1)[C@@H]1O[C@H]2c2ccc(-c3ccc(Cl)cc3C#N)cc21` (single isomer, unassigned) [Example 139], the IC50 is 3.02 nM.

As for `Cc1ccc(-c2ccc3c(c2)[C@H]2O[C@@H]3c3ccc(C(=O)NCc4c(C)cc(N)nc4C)cc32)c(C#N)c1` (single isomer, unassigned) [Example 140], the IC50 is 5.01 nM.

Turning to `Cc1cc(N)nc(C)c1CNC(=O)c1ccc2c(c1)[C@@H]1O[C@H]2c2ccc(-c3ccc(Cl)c(F)c3F)cc21` (single isomer, unassigned) [Example 145], the IC50 was 17.4 nM.

Take `Cc1cc(N)nc(C)c1CNC(=O)c1ccc2c(c1)[C@@H]1O[C@H]2c2ccc(-c3ccc(Cl)cc3F)cc21` (single isomer, unassigned) [Example 174]: the IC50 was 46.8 nM.

Regarding `Cc1cc(N)nc(C)c1CNC(=O)c1ccc2c(c1)[C@@H]1O[C@H]2c2ccc(-c3ccc(F)cc3Cl)cc21` (single isomer, unassigned) [Example 176], the IC50 is 67.6 nM.

On to `COc1ccc(-c2ccc3c(c2)[C@H]2O[C@@H]3c3ccc(C(=O)NCc4c(C)cc(N)nc4C)cc32)c(F)n1` (single isomer, unassigned) [Example 177], for which the IC50 was 117 nM.

As for `Cc1cc(N)nc(C)c1CNC(=O)c1ccc2c(c1)[C@@H]1O[C@H]2c2ccc(Cn3cc(F)cn3)cc21` (single isomer, unassigned) [Example 178], the IC50 is 1 nM.

In the case of `Cc1cc(N)nc(C)c1CNC(=O)c1ccc2c(c1)[C@@H]1O[C@H]2c2ccc(Cn3cc(Cl)cn3)cc21` (single isomer, unassigned) [Example 179], the IC50 is 1 nM.

Consider `CCc1cc(N)nc(C)c1CNC(=O)c1ccc2c(c1)[C@@H]1O[C@H]2c2ccc(-c3ccc(F)cc3F)cc21` (single isomer, unassigned) [Example 183], for which the IC50 was 12 nM.

On to `Cc1cc(N)nc(C)c1CNC(=O)c1ccc2c(c1)[C@@H]1O[C@H]2c2cc(Oc3cccc(F)c3)ccc21` (single isomer, unassigned) [Example 184], for which the IC50 is 75.9 nM.

Consider `Cc1cc(N)nc(C)c1CNC(=O)c1ccc2c(c1)[C@@H]1O[C@H]2c2ccc(Oc3ccn(C)n3)cc21` (single isomer, unassigned) [Example 185], for which the IC50 was 2240 nM.

For the compound `Cc1cc(N)nc(C)c1CNC(=O)c1ccc2c(c1)[C@@H]1O[C@H]2c2ccc(-n3c(=O)ccn3C)cc21` (single isomer, unassigned) [Example 186], the IC50 is 1820 nM.

On to `N=C(N)c1ccc(CNC(=O)c2ccc3c(c2)[C@@H]2O[C@H]3c3ccc(-c4ccccc4F)cc32)cc1` (single isomer, unassigned) [Example 187], for which the IC50 is 1.74 nM.

Turning to `Cc1cc(N)nc(C)c1CNC(=O)c1ccc2c(c1)[C@@H]1O[C@H]2c2ccc(Oc3cccc(F)c3)cc21` (single isomer, unassigned) [Example 191], the IC50 was 105 nM.

Consider `Cc1nc(N)cc(Cl)c1CNC(=O)c1ccc2c(c1)[C@@H]1O[C@H]2c2ccc(-c3ccc(F)cc3F)cc21` (single isomer, unassigned) [Example 192], for which the IC50 is 977 nM.

Regarding `Cc1cc(N)nc(C)c1CNC(=O)c1ccc2c(c1)[C@@H]1O[C@H]2c2ccc(C(=O)N3CC4CCC(C3)O4)cc21` (single isomer, unassigned) [Example 193], the IC50 is 1580 nM.

On to `Cc1cc(N)nc(C)c1CNC(=O)c1ccc2c(c1)[C@@H]1O[C@H]2c2ccc(C(=O)N(C)c3ccccc3)cc21` (single isomer, unassigned) [Example 194], for which the IC50 was 1660 nM.

`Cc1cc(N)nc(C)c1CNC(=O)c1ccc2c(c1)[C@@H]1O[C@H]2c2ccc(-c3cccc[n+]3[O-])cc21` (single isomer, unassigned) [Example 195]: the IC50 was 1050 nM.
